According to US10632181B2, “Composition, containing RGD motif-containing peptide or fragment thereof, for treating burns and glaucoma, alleviating skin wrinkles, and promoting hair growth” (HUONS CO., LTD., priority 2014, dated 2020):

Tests used:
Format in all cases: in vivo, Women aged 30-65
wrinkles around eyes [1] = assay: Wrinkle extent around eyes, skin replica, Visiometer SV600; design: R3 numerical value (average roughness) / R1 numerical value (skin roughness) / R4 numerical value (smoothness depth) / R5 numerical value (arithmetic average roughness): unit not given here
Description: The extent of wrinkles around eyes was measured using equipment. A target site to measure the wrinkle extent was regions around the eyes of the subjects, and the left side and the right side of the face were set as a measurement site. To measure the wrinkle extent, the subjects were allowed to wash the measurement site with water, and take a rest for 30 minutes in the waiting room under constant temperature and constant humidity conditions of indoor temperature 20-25° C. and humidity 40-60% to acclimate the skin surface temperature and humidity to the environment of the measurement space, and were not permitted to drink water during the rest. For objective measurement, measurements were performed by one researcher, and the same site was measured at each time of the first visit before use and the second and third visits in 2 and 4 weeks after use. Transparency profilometry analysis was performed using Visiometer SV600 (Courage-Khazaka electronic GmbH, Germany) on skin replica of the site to which test product and control product were applied before use and 2 and 4 weeks after use, and to identify if there is any difference in each of control group and experimental group after use, a change (%) in R1, R2, R4, R5 measurement values in 2 and 4 weeks after use relative to before use was analyzed.

wrinkles around eyes [2] = assay: Wrinkle extent around eyes by 3D imaging (PRIMOS Premium); conditions: for Rmax numerical value (maximum height of wrinkle profile) / Rp numerical value (maximum profile peak height) / Rv numerical value (maximum profile valley depth): in µm (unit assumed)
Description: Furthermore, the wrinkle extent was measured by 3D imaging. A target site to measure the wrinkle extent was regions around the eyes of the subjects, and the right side of the face was set as a measurement site. To measure the wrinkle extent, the subjects were allowed to wash the measurement site with water, and take a rest for 30 minutes in the waiting room under constant temperature constant humidity conditions of indoor temperature 20-25° C. and humidity 40-60% to acclimate the skin surface temperature and humidity to the environment of the measurement space, and were not permitted to drink water during the rest. For objective measurement, measurements were performed by one researcher, and the same site was measured at each time of the first visit before use and the second and third visits in 2 and 4 weeks after use. Before use and in 2 and 4 weeks after use, images of the site to which the test product (HU022 (SEQ ID NO:1)) was applied were formed using 3D skin imaging machine (PRIMOS Premium), and to verify if there is any difference in each of control group and experimental group in 4 weeks after use, wrinkle parameters, Ra, Rmax, Rt, Rp, Rv values, in the stored images of 2 weeks and 4 weeks after use relative to before use were analyzed.

wrinkles around eyes [3] = assay: Expert visual assessment of wrinkles (global photodamage score); conditions: for expert visual assessment score: severity 0-7
Description: Furthermore, visual assessment was performed. At each visit before and after use, experts assessed the wrinkle extent by scoring using global photodamage score (Br J Dermatol. 2010; 162(3):497-502). To verify if there is any difference in each of control group and experimental group in 4 weeks after use, a change (%) in visual assessment scores of 2 weeks and 4 weeks after use relative to before use was analyzed. The visual assessment scores are as follows (Table 18): […]

wrinkles around eyes [4] = assay: Survey of subjects about wrinkle reduction effectiveness
Description: Furthermore, surveying the subjects about effectiveness was conducted. The subjects were asked to personally make responses about the extent to which the subjects felt that wrinkles reduced after use of test product using 5 levels: better (4), a little bit better (3), no change (2), a little bit worse (1), worse (0). The researcher determined if test product has efficacy by calculating the percentage of the number of subjects for each response.

wrinkles around eyes [5] = assay: Wrinkle extent around eyes, skin replica, Visiometer SV600; design: R3 numerical value (average roughness): unit not given here; conditions: Before use
[6] = response 2 (fair), 4 weeks after use
[7] = response 3 (good), 4 weeks after use

Substance: HU022: polypeptide consisting of 452nd-509th amino acids of ADAM 15 (GenBank AAH14566.1), 58 amino acids; commercial product (EYEGENE Inc.)
- R1 numerical value (skin roughness) (wrinkles around eyes [1]; 2 weeks after use, twice daily): 54.59 ± 10.99
- R2 numerical value (maximum roughness) (wrinkles around eyes [1]; 2 weeks after use, twice daily): 36.87 ± 6.02
- R3 numerical value (average roughness) (wrinkles around eyes [1]; 2 weeks after use, twice daily): 24.41 ± 4.16
- R4 numerical value (smoothness depth) (wrinkles around eyes [1]; 2 weeks after use, twice daily): 23.64 ± 5.11
- R5 numerical value (arithmetic average roughness) (wrinkles around eyes [1]; 2 weeks after use, twice daily): 9.44 ± 2.44
- R1 numerical value (skin roughness) (wrinkles around eyes [1]; 4 weeks after use, twice daily): 51.06 ± 19.28
- R2 numerical value (maximum roughness) (wrinkles around eyes [1]; 4 weeks after use, twice daily): 29.16 ± 5.12
- R3 numerical value (average roughness) (wrinkles around eyes [1]; 4 weeks after use, twice daily): 18.62 ± 2.79
- R4 numerical value (smoothness depth) (wrinkles around eyes [1]; 4 weeks after use, twice daily): 22.94 ± 10.03
- R5 numerical value (arithmetic average roughness) (wrinkles around eyes [1]; 4 weeks after use, twice daily): 10.10 ± 5.97
- R1 numerical value (skin roughness) (wrinkles around eyes [1]; Before use): 76.23 ± 12.15
- R2 numerical value (maximum roughness) (wrinkles around eyes [1]; Before use): 54.26 ± 5.70
- R4 numerical value (smoothness depth) (wrinkles around eyes [1]; Before use): 30.41 ± 7.01
- R5 numerical value (arithmetic average roughness) (wrinkles around eyes [1]; Before use): 13.57 ± 3.65
- Change(%) in R1 (wrinkles around eyes [1]; Before use-2 weeks after use): −28.38%
- Change(%) in R4 (wrinkles around eyes [1]; Before use-2 weeks after use): −22.27%
- Change(%) in R5 (wrinkles around eyes [1]; Before use-2 weeks after use): −30.43%
- Change(%) in R1 (wrinkles around eyes [1]; Before use-4 weeks after use): −33.02%
- Change(%) in R3 (wrinkles around eyes [1]; Before use-4 weeks after use): −45.62%
- Change(%) in R4 (wrinkles around eyes [1]; Before use-4 weeks after use): −24.57%
- Change(%) in R5 (wrinkles around eyes [1]; Before use-4 weeks after use): −26.52%
- Ra numerical value (roughness average of wrinkle profile) (wrinkles around eyes [2]; 2 weeks after use, twice daily): 18.20 ± 3.94
- Rt numerical value (distance between highest peak and lowest valley) (wrinkles around eyes [2]; 2 weeks after use, twice daily): 187.85 ± 34.10
- Rmax numerical value (maximum height of wrinkle profile) (wrinkles around eyes [2]; 2 weeks after use, twice daily): 168.83 ± 29.61
- Rp numerical value (maximum profile peak height) (wrinkles around eyes [2]; 2 weeks after use, twice daily): 116.47 ± 35.75
- Rv numerical value (maximum profile valley depth) (wrinkles around eyes [2]; 2 weeks after use, twice daily): 71.38 ± 16.44
- Ra numerical value (roughness average of wrinkle profile) (wrinkles around eyes [2]; 4 weeks after use, twice daily): 17.00 ± 3.88
- Rt numerical value (distance between highest peak and lowest valley) (wrinkles around eyes [2]; 4 weeks after use, twice daily): 184.63 ± 36.83
- Rmax numerical value (maximum height of wrinkle profile) (wrinkles around eyes [2]; 4 weeks after use, twice daily): 168.80 ± 33.21
- Rp numerical value (maximum profile peak height) (wrinkles around eyes [2]; 4 weeks after use, twice daily): 121.88 ± 38.06
- Rv numerical value (maximum profile valley depth) (wrinkles around eyes [2]; 4 weeks after use, twice daily): 62.75 ± 11.92
- Ra numerical value (roughness average of wrinkle profile) (wrinkles around eyes [2]; Before use): 19.19 ± 4.27
- Rt numerical value (distance between highest peak and lowest valley) (wrinkles around eyes [2]; Before use): 195.05 ± 31.31
- Change(%) in Ra (wrinkles around eyes [2]; Before use-2 weeks after use): −5.15%
- Change(%) in Rmax (wrinkles around eyes [2]; Before use-2 weeks after use): −4.23%
- Change(%) in Rp (wrinkles around eyes [2]; Before use-2 weeks after use): −5.10%
- Change(%) in Rt (wrinkles around eyes [2]; Before use-2 weeks after use): −3.69%
- Change(%) in Rv (wrinkles around eyes [2]; Before use-2 weeks after use): −1.30%
- Change(%) in Ra (wrinkles around eyes [2]; Before use-4 weeks after use): −11.42%
- Change(%) in Rmax (wrinkles around eyes [2]; Before use-4 weeks after use): −4.25%
- Change(%) in Rp (wrinkles around eyes [2]; Before use-4 weeks after use): −0.70%
- Change(%) in Rt (wrinkles around eyes [2]; Before use-4 weeks after use): −5.35%
- Change(%) in Rv (wrinkles around eyes [2]; Before use-4 weeks after use): −13.24%
- Rmax numerical value (maximum height of wrinkle profile) (wrinkles around eyes [2]; Before use): 176.29 ± 27.79
- Rp numerical value (maximum profile peak height) (wrinkles around eyes [2]; Before use): 122.73 ± 31.55
- Rv numerical value (maximum profile valley depth) (wrinkles around eyes [2]; Before use): 72.32 ± 17.16
- expert visual assessment score (wrinkles around eyes [3]; 2 weeks after use): 2.17 ± 0.75
- expert visual assessment score (wrinkles around eyes [3]; 4 weeks after use): 1.67 ± 1.03
- expert visual assessment score (wrinkles around eyes [3]; Before use): 2.17 ± 0.75
- Change(%) in expert visual assessment score (wrinkles around eyes [3]; Before use-2 weeks after use): 0%
- Change(%) in expert visual assessment score (wrinkles around eyes [3]; Before use-4 weeks after use): −23.08%
- Number of subjects, wrinkle reduction survey (wrinkles around eyes [4]; response 0 (very bad), 4 weeks after use): 0
- Number of subjects, wrinkle reduction survey (wrinkles around eyes [4]; response 1 (bad), 4 weeks after use): 0
- Number of subjects, wrinkle reduction survey (wrinkles around eyes [4]; [6]): 1
- Percentage of subjects, wrinkle reduction survey (wrinkles around eyes [4]; [6]): (16.7) %
- Number of subjects, wrinkle reduction survey (wrinkles around eyes [4]; [7]): 5
- Percentage of subjects, wrinkle reduction survey (wrinkles around eyes [4]; [7]): (83.3) %
- Number of subjects, wrinkle reduction survey (wrinkles around eyes [4]; response 4 (very good), 4 weeks after use): 0
- Mean of wrinkle reduction survey response (wrinkles around eyes [4]; scale 0-4, 4 weeks after use): 2.83
- survey assessment about wrinkle reduction, test product versus control product (wrinkles around eyes [4]; third visit, 4 weeks after use): test product was better at reducing wrinkles than control product
- R3 numerical value (average roughness) (wrinkles around eyes [5]): 34.24 ± 3.51
